Source: patent US20250136629A1, “SELF-ASSEMBLED NANOPARTICLES FOR PHOTOTHERMAL THERAPY” (The University of Hong Kong, priority 2023, published 2025)

Experiment: Air stability of the complexes (observation)
Type: physicochemical

[Fe(II)-ppy-tpy-Cl] [Complex R]
air stability: slightly air-sensitive in both the solid and solution states
